# Assay results published in patent US10472686B2, “Mechanisms of antimicrobial susceptibility” (Roche Molecular Systems, Inc., priority 2015, dated 2019).
# Assays:
# KPC-expressing E. coli [1] = assay: Smarticles live cell luminescence assay with inhibitors (Example 4); format: cell-based; settings: clinical isolates
# Protocol: (§1) Thus, the ability to quickly detect viable Gram-negative bacteria, determine their susceptibility to carbapenems, and distinguish between carbapenem resistance mechanisms could aid physicians in considering such therapeutic options in the future. […] In this study, a Smarticles™ assay was evaluated for its ability to detect carbapenem resistant E. coli and distinguish between NDM-1 and KPC-expressing organisms.
# (§2) Methods: 26 clinical isolates of E. coli, Klebsiella spp., Enterobacter spp., Citrobacter spp., Proteus spp., and S. marcescens were evaluated using the Smarticles™ assay and ertapenem disk diffusion. CRE isolates included organisms expressing blaKPC and blaNDM-1. The Smarticles™ assay was used with the addition of the chelating agent edetic acid (EDTA) and β-lactamase inhibitor boronic acid to scrutinize clinical isolates of E. coli expressing NDM-1 and KPC.
# KPC-expressing E. coli [2] = assay: NRTP luciferase live cell reporter assay, KPC detection (Example 2); format: cell-based; settings: 2 hours at 37° C.
# Protocol: In another embodiment of the invention, a KPC detection assay is produced using a luciferase-expressing non-replicative transduction particle specific to Enterobacteriaceae as described in PCT/US2014/026536, Example 1, ertapenem and the β-lactamase inhibitor boronic acid.
# A culture of a clinical isolate of a KPC-expressing E. coli was prepared in LB media and used to determine the response of the NRTP reporter in the presence of ertapenem, and boronic acid. The replicates of the assay were prepared mixing 50 μL of the cell culture at an OD600 of 0.02 to 50 μL of LB media and 100 μL of NRTP reagent prepared in a microwell plate. The assay was incubated for 2 hours at 37° C. under the following conditions: (1) No additives, (2) with the addition of ertapenem at 1 μg/mL, and (3) with the addition of ertapenem and phenyl boronic acid 400 μg/mL. After the incubation, the samples were assayed for luminescence after the injection of a nonanal reagent as a substrate for the live cell reporter using a Molecular Devices SpectraMax L luminometer.
# The luminescence readings were then normalized to those produced by sample (1) and plotted as the average percentage relative to sample (1) as shown in FIG. 1.
# NDM-1-expressing E. coli [3] = format: cell-based; settings: Smarticles assay, clinical isolates
# Protocol: as §1, §2
# NDM-1-expressing E. coli [4] = assay: NRTP luciferase live cell reporter assay, NDM-1 detection (Example 1); format: cell-based; settings: 2 hours at 37° C.; for luminescence signal (% RLU normalized to No Antibiotic): FIG. 2
# Protocol: An NDM-1 detection assay is produced using a luciferase-expressing non-replicative transduction particle specific to Enterobacteriaceae (as described in PCT/US2014/026536, Example 1), ertapenem, and the chelator Ethylenediaminetetraacetic acid (EDTA).
# A culture of a clinical isolate of an NDM-1-expressing E. coli was prepared in LB media and used to determine the response of the NRTP reporter in the presence of ertapenem, EDTA, and Zinc. The assay was prepared by mixing 50 μL of the cell culture at an OD600 of 0.02 to 50 μL of LB media and 100 μL of NRTP reagent prepared in a microwell plate. The assay was incubated for 2 hours at 37° C. under the following conditions: (1) No additives, (2) with the addition of ertapenem at 0.25 μg/mL, (3) with the addition of ertapenem and EDTA at 750 μg/mL, and (4) with the addition of ertapenem and Zinc sulfate at 70 μg/mL. After the incubation, the samples were assayed for luminescence after the injection of a nonanal reagent as a substrate for the live cell reporter using a Molecular Devices SpectraMax L luminometer.
# The luminescence readings were then normalized to those produced by sample (1) and plotted as a percentage relative to sample (1) as shown in FIG. 2.
# [5] = system: Class B carbapenemases (e.g. NDM-1); settings: background statement; cited from earlier work
# [6] = system: Class A carbapenemases (e.g. KPC); settings: background statement; cited from earlier work
smiles,measurement,setting,value
"OB(O)c1ccccc1 [boronic acid, phenyl boronic acid]",assay signal in the presence of the inhibitor,KPC-expressing E. coli [1],inhibited
same,luminescence signal (% RLU normalized to No Antibiotic),KPC-expressing E. coli [2]; ertapenem 1 μg/mL and phenyl boronic acid 400 μg/mL,significantly decreased
same,assay signal in the presence of the inhibitor,NDM-1-expressing E. coli [3],not inhibited
"O=C(O)CN(CCN(CC(=O)O)CC(=O)O)CC(=O)O [EDTA, Ethylenediaminetetraacetic acid]",assay signal in the presence of the inhibitor,KPC-expressing E. coli [1],not inhibited
same,luminescence signal (% RLU normalized to No Antibiotic),NDM-1-expressing E. coli [4]; ertapenem 0.25 μg/mL and EDTA 750 μg/mL,significantly decreased
same,assay signal in the presence of the inhibitor,NDM-1-expressing E. coli [3],inhibited
C[C@@H](O)[C@H]1C(=O)N2C(C(=O)O)=C(S[C@@H]3CN[C@H](C(=O)Nc4cccc(C(=O)O)c4)C3)[C@H](C)[C@H]12 [ertapenem],luminescence signal (% RLU normalized to No Antibiotic),NDM-1-expressing E. coli [4]; ertapenem 0.25 μg/mL alone,not significantly decreased
same,susceptibility phenotype,NDM-1-expressing E. coli [4]; ertapenem 0.25 μg/mL,non-susceptible
same,luminescence signal (% RLU normalized to No Antibiotic),KPC-expressing E. coli [2]; ertapenem 1 μg/mL alone,not significantly decreased
same,susceptibility phenotype,KPC-expressing E. coli [2]; ertapenem 1 μg/mL,non-susceptible
"O=S(=O)([O-])[O-].[Zn+2] [Zinc, Zinc sulfate]",luminescence signal (% RLU normalized to No Antibiotic),NDM-1-expressing E. coli [4]; ertapenem 0.25 μg/mL and Zinc sulfate 70 μg/mL,significantly increased
O=C(NC1CCNCC1)[C@@H]1CC[C@@H]2CN1C(=O)N2OS(=O)(=O)O [Relebactam],activity against Class B carbapenemases,[5],not against
same,activity against Class A carbapenemases,[6],shown activity
